This is an account of results in ChEMBL document CHEMBL2074155, “Transport of antimony salts by Arabidopsis thaliana protoplasts over-expressing the human multidrug resistance-associated protein 1 (MRP1/ABCC1)” (FEBS Lett, 2006).

Data set [1] addresses T1, Multidrug resistance-associated protein 1 (Homo sapiens, UniProt P33527). Put plainly: TP_TRANSPORTER: inhibition of Sb(III) accumulation in the presence of glibenclamid at a concentration of 10uM in MRP1-expressing MCP cells. Particulars: arabidopsis thaliana. Format: functional, subcellular, Protoplasts.
In data set [2] the target is T1, Multidrug resistance-associated protein 1. Put plainly: TP_TRANSPORTER: cell accumulation in MRP1-expressing MCP cells. Type of data set: functional, Mesophyll cell protoplasts. Particulars: arabidopsis thaliana.

T1 sequence (P33527 whole entry): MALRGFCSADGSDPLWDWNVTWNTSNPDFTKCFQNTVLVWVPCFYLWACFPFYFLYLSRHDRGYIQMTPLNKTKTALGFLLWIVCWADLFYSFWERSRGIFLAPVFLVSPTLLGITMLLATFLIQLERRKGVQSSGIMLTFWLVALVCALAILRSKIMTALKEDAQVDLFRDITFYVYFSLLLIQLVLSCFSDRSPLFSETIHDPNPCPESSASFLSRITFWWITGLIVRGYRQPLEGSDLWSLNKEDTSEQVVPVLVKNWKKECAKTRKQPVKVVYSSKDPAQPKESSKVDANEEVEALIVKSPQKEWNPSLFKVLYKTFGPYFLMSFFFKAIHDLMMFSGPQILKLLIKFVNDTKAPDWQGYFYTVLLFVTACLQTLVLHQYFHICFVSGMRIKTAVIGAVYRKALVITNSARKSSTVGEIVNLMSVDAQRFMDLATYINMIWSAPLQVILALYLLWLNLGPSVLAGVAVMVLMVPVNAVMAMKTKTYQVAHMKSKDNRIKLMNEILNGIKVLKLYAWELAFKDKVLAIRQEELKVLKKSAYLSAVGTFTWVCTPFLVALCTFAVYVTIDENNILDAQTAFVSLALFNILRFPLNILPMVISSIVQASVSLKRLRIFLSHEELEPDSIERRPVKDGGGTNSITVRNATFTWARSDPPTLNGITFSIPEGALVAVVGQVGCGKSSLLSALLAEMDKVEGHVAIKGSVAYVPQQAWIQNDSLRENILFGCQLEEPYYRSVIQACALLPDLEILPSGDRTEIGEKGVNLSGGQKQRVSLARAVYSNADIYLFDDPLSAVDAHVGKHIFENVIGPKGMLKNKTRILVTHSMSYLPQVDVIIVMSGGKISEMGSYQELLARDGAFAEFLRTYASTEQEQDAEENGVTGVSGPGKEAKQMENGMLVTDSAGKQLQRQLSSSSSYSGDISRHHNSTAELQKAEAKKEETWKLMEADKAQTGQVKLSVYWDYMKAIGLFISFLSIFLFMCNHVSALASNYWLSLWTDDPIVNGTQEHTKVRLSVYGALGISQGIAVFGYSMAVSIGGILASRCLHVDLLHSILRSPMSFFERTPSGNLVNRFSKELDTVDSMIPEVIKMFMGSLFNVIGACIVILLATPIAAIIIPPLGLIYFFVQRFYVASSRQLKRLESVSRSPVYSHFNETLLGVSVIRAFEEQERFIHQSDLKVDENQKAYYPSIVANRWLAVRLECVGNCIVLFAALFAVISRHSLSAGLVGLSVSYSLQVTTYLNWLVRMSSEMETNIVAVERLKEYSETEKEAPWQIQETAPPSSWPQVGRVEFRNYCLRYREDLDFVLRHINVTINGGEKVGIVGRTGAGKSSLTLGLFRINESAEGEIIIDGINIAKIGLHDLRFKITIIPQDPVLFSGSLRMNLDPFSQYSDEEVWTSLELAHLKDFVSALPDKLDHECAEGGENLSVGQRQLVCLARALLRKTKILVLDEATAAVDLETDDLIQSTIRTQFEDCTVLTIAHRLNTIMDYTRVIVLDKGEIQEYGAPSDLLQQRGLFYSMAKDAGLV

As for `COc1ccc(Cl)cc1C(=O)NCCc1ccc(S(=O)(=O)NC(=O)NC2CCCCC2)cc1` [GLYBURIDE], in data set [1], the Activity result is “inhibitor [+]”.

Take ANTIMONY (III) ION: the Activity result in data set [2] was “substrate [+]”.
